Among the data in ChEMBL document CHEMBL3046071, “Synthesis and microbial evaluation of novel N(1)-Arilidene-N(2)-t(3)-methyl-r(2),c(6)-diaryl-piperidin-4-one azine derivatives” (2006) are MIC values, retold here.

Converted amounts (≈) assume the structure as drawn.

Type in all cases: functional
One assay concerns Aspergillus niger. As to the kind of experiment: Antifungal activity against Aspergillus niger.
Assay [1] has as its system Candida. As to the kind of experiment: Antifungal activity against Candida-6.
For assay [2], the system named is Candida. Description: Antifungal activity against Candida-51.
The test system of a further assay is Aspergillus flavus. Description: Antifungal activity against Aspergillus flavus.
A further assay relates to Escherichia coli. Description: Antibacterial activity against Escherichia coli.
The test system of another assay is Bacillus subtilis. Description: Antibacterial activity against Bacillus subtilis.
In another assay the test system is Pseudomonas aeruginosa. As to the kind of experiment: Antibacterial activity against Pseudomonas aeruginosa.
Another assay concerns Enterococcus faecalis. Description: Antibacterial activity against Enterococcus faecalis.
Another assay relates to Staphylococcus aureus. Description: Antibacterial activity against Staphylococcus aureus.

The term MIC denotes the lowest concentration that inhibits growth of the organism. For the compound `C[C@@H]1[C@H](O)[C@@H](C)/C=C/C=C/C=C/C=C/C=C/C=C/C=C/[C@H](O[C@@H]2O[C@H](C)[C@@H](O)[C@H](N)[C@@H]2O)C[C@@H]2O[C@](O)(C[C@@H](O)C[C@@H](O)[C@H](O)CC[C@@H](O)C[C@@H](O)CC(=O)O[C@H]1C)C[C@H](O)[C@H]2C(=O)O` [AMPHOTERICIN B], the MIC came to 50 µg/mL (≈ 54.1 µM) against Aspergillus niger, 25 µg/mL (≈ 27.1 µM) against Candida [1], 25 µg/mL (≈ 27.1 µM) in the assay on Candida [2] and 50 µg/mL (≈ 54.1 µM) against Aspergillus flavus.

Turning to `C/C(=N\N=C1/CC(c2ccccc2)NC(c2ccccc2)C1C)c1ccccc1` (mixture of isomers), the MIC against Aspergillus niger was determined as 50 µg/mL; in the assay with Escherichia coli, 12.5 µg/mL; against Candida [1], 25 µg/mL; against Bacillus subtilis, 12.5 µg/mL; in the assay on Pseudomonas aeruginosa it was 25 µg/mL; in the assay with Candida [2], 50 µg/mL. Besides, the MIC against Enterococcus faecalis stood at 25 µg/mL; in the assay on Staphylococcus aureus, 50 µg/mL; against Aspergillus flavus, 100 µg/mL.

Regarding `CC1/C(=N/N)CC(c2ccccc2)NC1c1ccccc1` (stereo not given), the MIC against Candida [1], in the assay with Bacillus subtilis, against Staphylococcus aureus and in the assay with Aspergillus flavus was 100 µg/mL (≈ 358 µM) each time.

Turning to `COc1ccc(/C=N/N=C2\CC(c3ccccc3)NC(c3ccccc3)C2C)cc1` (mixture of isomers), the MIC came to 50 µg/mL in the assay with Aspergillus niger; 12.5 µg/mL against Escherichia coli; 12.5 µg/mL in the assay with Candida [1]; 6.25 µg/mL against Bacillus subtilis; 50 µg/mL in the assay with Pseudomonas aeruginosa; 12.5 µg/mL against Candida [2]. The MIC in the assay on Enterococcus faecalis came out at 25 µg/mL; in the assay on Staphylococcus aureus, 25 µg/mL; in the assay on Aspergillus flavus it was 100 µg/mL.

Take `CC1/C(=N/N=C/c2ccccc2[N+](=O)[O-])CC(c2ccccc2)NC1c1ccccc1` (stereo not given): the MIC in the assay on Aspergillus niger came to 50 µg/mL (≈ 121 µM); against Escherichia coli, 100 µg/mL (≈ 242 µM); against Candida [1] it was 100 µg/mL (≈ 242 µM); with Bacillus subtilis it was 50 µg/mL (≈ 121 µM); with Pseudomonas aeruginosa it was 50 µg/mL (≈ 121 µM); in the assay on Candida [2], 50 µg/mL (≈ 121 µM). Moreover, the MIC amounted to 100 µg/mL (≈ 242 µM) against Enterococcus faecalis, 50 µg/mL (≈ 121 µM) against Staphylococcus aureus and 100 µg/mL (≈ 242 µM) in the assay on Aspergillus flavus.

Turning to `CC1/C(=N/N=C/c2ccccc2Cl)CC(c2ccco2)NC1c1ccco1` (stereo not given), the MIC was found to be 25 µg/mL (≈ 65.5 µM) against Aspergillus niger; 12.5 µg/mL (≈ 32.7 µM) with Escherichia coli; 12.5 µg/mL (≈ 32.7 µM) against Candida [1]; 6.25 µg/mL (≈ 16.4 µM) with Bacillus subtilis; 25 µg/mL (≈ 65.5 µM) in the assay on Pseudomonas aeruginosa; 12.5 µg/mL (≈ 32.7 µM) against Candida [2]. The MIC in the assay with Enterococcus faecalis was determined as 25 µg/mL (≈ 65.5 µM); with Staphylococcus aureus, 25 µg/mL (≈ 65.5 µM); against Aspergillus flavus, 50 µg/mL (≈ 131 µM).

For `CC1/C(=N/N)CC(c2ccco2)NC1c1ccco1` (stereo not given), the MIC in the assay with Candida [1], against Bacillus subtilis, in the assay on Staphylococcus aureus and against Aspergillus flavus was 100 µg/mL (≈ 386 µM) in each case.

In the case of `CN[C@@H]1[C@H](O[C@H]2[C@H](O[C@H]3[C@H](O)[C@@H](O)[C@H](N=C(N)N)[C@@H](O)[C@@H]3N=C(N)N)O[C@@H](C)[C@]2(O)C=O)O[C@@H](CO)[C@H](O)[C@H]1O` [STREPTOMYCIN], the MIC against Escherichia coli is 12.5 µg/mL (≈ 21.5 µM); against Bacillus subtilis, 12.5 µg/mL (≈ 21.5 µM); against Pseudomonas aeruginosa, 25 µg/mL (≈ 43 µM); against Enterococcus faecalis, 50 µg/mL (≈ 86 µM); against Staphylococcus aureus it was 25 µg/mL (≈ 43 µM).

Turning to `CC1/C(=N/N=C/c2ccco2)CC(c2ccccc2)NC1c1ccccc1` (stereo not given), the MIC in the assay on Aspergillus niger amounted to 12.5 µg/mL (≈ 35 µM); against Escherichia coli, 25 µg/mL (≈ 69.9 µM); against Candida [1], 12.5 µg/mL (≈ 35 µM); in the assay with Bacillus subtilis it was 12.5 µg/mL (≈ 35 µM); against Pseudomonas aeruginosa, 50 µg/mL (≈ 140 µM); against Candida [2], 12.5 µg/mL (≈ 35 µM). The figures for the MIC against Enterococcus faecalis, against Staphylococcus aureus and against Aspergillus flavus were 50 µg/mL (≈ 140 µM), 12.5 µg/mL (≈ 35 µM) and 50 µg/mL (≈ 140 µM), respectively.

Turning to `CC1/C(=N/N=C2\CC(c3ccccc3)NC(c3ccccc3)C2C)CC(c2ccccc2)NC1c1ccccc1` (mixture of isomers), the MIC against Aspergillus niger is 100 µg/mL; against Escherichia coli, 50 µg/mL; in the assay with Candida [1], 50 µg/mL; in the assay with Bacillus subtilis, 100 µg/mL; with Pseudomonas aeruginosa it was 100 µg/mL; with Candida [2] it was 100 µg/mL. For the same compound, the MIC against Enterococcus faecalis, with Staphylococcus aureus and in the assay with Aspergillus flavus was 100 µg/mL in each case.

Take `CC1/C(=N/N=C/c2ccccc2O)CC(c2ccccc2)NC1c1ccccc1` (stereo not given): the MIC came to 100 µg/mL (≈ 261 µM) in the assay on Aspergillus niger; 100 µg/mL (≈ 261 µM) in the assay on Escherichia coli; 50 µg/mL (≈ 130 µM) in the assay with Candida [1]; 50 µg/mL (≈ 130 µM) against Bacillus subtilis; 50 µg/mL (≈ 130 µM) in the assay with Pseudomonas aeruginosa; 25 µg/mL (≈ 65.2 µM) against Candida [2]. The figures for the MIC in the assay on Enterococcus faecalis, with Staphylococcus aureus and in the assay on Aspergillus flavus were 50 µg/mL (≈ 130 µM), 50 µg/mL (≈ 130 µM) and 100 µg/mL (≈ 261 µM), respectively.
